In ChEMBL document CHEMBL4804281, “STK4 inhibitors for treatment of hematologic malignancies” (2020):

How the values were obtained:
Type in all cases: cell-based
[1] = target: Protein kinase C zeta type (Homo sapiens) (UniProt Q05513); test: Inhibition of PKCz in human NCI-H929 cells at 10 uM by mass spectroscopic analysis relative to control
[2] = target: T1, Serine/threonine-protein kinase 4 (Homo sapiens) (UniProt Q13043); test: Inhibition of MST1 in human NCI-H929 cells at 10 uM by mass spectroscopic analysis relative to control
T1 sequence (whole entry): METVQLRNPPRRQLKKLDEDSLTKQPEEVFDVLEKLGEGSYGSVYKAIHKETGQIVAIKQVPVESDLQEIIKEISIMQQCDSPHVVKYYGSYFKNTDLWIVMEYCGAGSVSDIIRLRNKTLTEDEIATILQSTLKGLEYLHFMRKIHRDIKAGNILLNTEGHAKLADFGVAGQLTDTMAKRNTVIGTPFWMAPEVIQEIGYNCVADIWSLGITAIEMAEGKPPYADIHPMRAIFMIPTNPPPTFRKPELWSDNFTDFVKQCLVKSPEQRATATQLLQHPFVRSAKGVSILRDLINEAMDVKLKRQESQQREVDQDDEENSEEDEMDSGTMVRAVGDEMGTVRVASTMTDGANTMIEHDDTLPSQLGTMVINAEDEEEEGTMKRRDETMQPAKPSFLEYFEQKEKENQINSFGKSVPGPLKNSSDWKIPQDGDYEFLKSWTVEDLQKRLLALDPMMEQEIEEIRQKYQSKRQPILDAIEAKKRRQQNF

[3] = target: Mitogen-activated protein kinase kinase kinase kinase 3 (Homo sapiens) (UniProt Q8IVH8); test: Inhibition of KHS2 in human NCI-H929 cells at 10 uM by mass spectroscopic analysis relative to control
Sequence of Mitogen-activated protein kinase kinase kinase kinase 3 (Homo sapiens) (Q8IVH8 whole entry): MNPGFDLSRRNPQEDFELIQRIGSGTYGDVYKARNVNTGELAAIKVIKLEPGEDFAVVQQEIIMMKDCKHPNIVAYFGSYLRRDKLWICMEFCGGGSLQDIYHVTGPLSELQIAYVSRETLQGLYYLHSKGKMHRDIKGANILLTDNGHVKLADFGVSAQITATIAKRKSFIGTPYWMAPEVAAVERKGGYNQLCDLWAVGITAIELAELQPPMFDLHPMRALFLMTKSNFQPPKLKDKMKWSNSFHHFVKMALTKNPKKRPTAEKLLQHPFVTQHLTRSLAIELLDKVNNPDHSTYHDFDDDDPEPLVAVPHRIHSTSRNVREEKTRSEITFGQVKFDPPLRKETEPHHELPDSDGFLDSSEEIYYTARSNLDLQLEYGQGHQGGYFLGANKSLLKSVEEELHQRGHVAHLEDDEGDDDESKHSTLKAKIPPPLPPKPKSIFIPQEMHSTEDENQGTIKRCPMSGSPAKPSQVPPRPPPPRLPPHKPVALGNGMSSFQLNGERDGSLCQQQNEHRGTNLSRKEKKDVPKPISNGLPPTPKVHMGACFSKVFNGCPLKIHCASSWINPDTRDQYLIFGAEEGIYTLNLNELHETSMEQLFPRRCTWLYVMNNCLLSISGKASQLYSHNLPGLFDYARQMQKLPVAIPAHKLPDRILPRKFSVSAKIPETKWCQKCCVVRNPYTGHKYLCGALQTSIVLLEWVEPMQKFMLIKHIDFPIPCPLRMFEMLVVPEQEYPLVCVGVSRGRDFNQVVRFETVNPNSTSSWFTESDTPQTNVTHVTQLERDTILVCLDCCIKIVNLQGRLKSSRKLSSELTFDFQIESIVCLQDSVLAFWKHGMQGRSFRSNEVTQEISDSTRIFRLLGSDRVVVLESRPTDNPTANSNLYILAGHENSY

Sequence of Protein kinase C zeta type (Homo sapiens) (Q05513 whole entry): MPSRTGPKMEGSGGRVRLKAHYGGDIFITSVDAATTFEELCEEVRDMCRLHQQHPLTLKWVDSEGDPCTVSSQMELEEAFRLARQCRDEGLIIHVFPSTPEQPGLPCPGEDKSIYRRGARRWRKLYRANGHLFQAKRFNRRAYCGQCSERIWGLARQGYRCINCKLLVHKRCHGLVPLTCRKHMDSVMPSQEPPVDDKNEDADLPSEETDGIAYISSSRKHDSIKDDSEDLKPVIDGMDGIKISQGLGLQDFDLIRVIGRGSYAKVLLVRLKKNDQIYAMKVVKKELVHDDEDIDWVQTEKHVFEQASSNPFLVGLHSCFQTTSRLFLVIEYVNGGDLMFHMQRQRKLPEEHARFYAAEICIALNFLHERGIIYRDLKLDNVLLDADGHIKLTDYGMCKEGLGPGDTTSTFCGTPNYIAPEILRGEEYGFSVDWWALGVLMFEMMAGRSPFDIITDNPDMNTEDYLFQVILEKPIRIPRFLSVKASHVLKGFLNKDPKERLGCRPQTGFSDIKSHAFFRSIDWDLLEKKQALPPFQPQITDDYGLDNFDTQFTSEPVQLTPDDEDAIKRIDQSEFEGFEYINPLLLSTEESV

| SMILES | inhibition [1] [%] | inhibition [2] [%] | inhibition [3] [%] |
| --- | --- | --- | --- |
| COc1cc(NS(=O)(=O)C2CC2)ccc1-c1cnc(N)c(-c2ccc3c(c2)CCNC3=O)c1 | 50 | 0 | – |
| CN(C1CC1)S(=O)(=O)c1ccc(-c2cnc(N)c(-c3ccc4c(c3)CCNC4=O)c2)c(F)c1 | – | – | 50 |
